Assay results reported in PubChem BioAssay AID1963965 (Molecular Pharmacology Branch, DTP, NCI, 2024).
Several values for one entry are separate records, joined by “and”; a condition that tells them apart may be missing. Identical values can stand only once.

System: 996289-038-R-J1-PDC spheroid viability
Test: Anticancer human tumor 996289-038-R-J1-PDC patient-derived colon adenocarcinoma cell line growth inhibition [PI3K]
Settings: spheroids with HUVEC and MSC; for viability, T/C: stronger effect = lower value
Outline: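 Tumor cells grown as multi-cell spheroids with HUVEC endothelial cells and MSC fibroblast-like stroma were treated with targeted agents combined with inavolisib, alpelisib, duvelisib or copanlisib. Doses fell in half-log steps from near clinical Cmax, else from 10 microM. Viability was measured.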

[1] = curve of first compound, second compound 0.0316 µM
[2] = curve of first compound, second compound 0.1 µM
[3] = curve of first compound, second compound 0.316 µM
[4] = curve of first compound, second compound 1 µM
[5] = second compound 0.0316 µM, first compound 0.0316 µM
[6] = second compound 0.0316 µM, first compound 0.1 µM
[7] = second compound 0.1 µM, first compound 0.0316 µM
[8] = second compound 0.1 µM, first compound 0.1 µM
[9] = second compound 0.316 µM, first compound 0.0316 µM
[10] = second compound 0.316 µM, first compound 0.1 µM
[11] = second compound 1 µM, first compound 0.0316 µM
[12] = second compound 1 µM, first compound 0.1 µM
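Note: spheroids exposed to compounds for seven days before viability read.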
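Throughout, for viability, T/C: luminescence used as a proxy for viable cell amount; percent viability relative to DMSO vehicle control as 100%.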

Cn1ncnc1[C@H]1c2n[nH]c(=O)c3cc(F)cc(c23)N[C@@H]1c1ccc(F)cc1 + CC(Nc1ccc2c(c1)OCCn1cc(N3C(=O)OCC3C(F)F)nc1-2)C(N)=O
IC50 (curve of first compound, second compound 0.00316 µM): > 0.1 µM | IC50 (curve of first compound, second compound 0.01 µM): > 0.1 µM | IC50 [1]: > 0.1 µM | IC50 [2]: > 0.1 µM | IC50 [3]: > 0.1 µM | IC50 [4]: > 0.1 µM | viability, T/C (second compound 0.00316 µM, first compound 0.000316 µM): 109% | viability, T/C (second compound 0.00316 µM, first compound 0.001 µM): 104% | viability, T/C (second compound 0.00316 µM, first compound 0.00316 µM): 95% | viability, T/C (second compound 0.00316 µM, first compound 0.01 µM): 112% | viability, T/C (second compound 0.00316 µM, first compound 0.0316 µM): 99.5% | viability, T/C (second compound 0.00316 µM, first compound 0.1 µM): 90.2% | viability, T/C (second compound 0.01 µM, first compound 0.000316 µM): 103% | viability, T/C (second compound 0.01 µM, first compound 0.001 µM): 102% | viability, T/C (second compound 0.01 µM, first compound 0.00316 µM): 103% | viability, T/C (second compound 0.01 µM, first compound 0.01 µM): 111% | viability, T/C (second compound 0.01 µM, first compound 0.0316 µM): 106% | viability, T/C (second compound 0.01 µM, first compound 0.1 µM): 98.6% | viability, T/C (second compound 0.0316 µM, first compound 0.000316 µM): 114% | viability, T/C (second compound 0.0316 µM, first compound 0.001 µM): 85.7% | viability, T/C (second compound 0.0316 µM, first compound 0.00316 µM): 88.5% | viability, T/C (second compound 0.0316 µM, first compound 0.01 µM): 101% | viability, T/C [5]: 97.3% | viability, T/C [6]: 85.4% | viability, T/C (second compound 0.1 µM, first compound 0.000316 µM): 89.1% | viability, T/C (second compound 0.1 µM, first compound 0.001 µM): 87.6% | viability, T/C (second compound 0.1 µM, first compound 0.00316 µM): 77.5% | viability, T/C (second compound 0.1 µM, first compound 0.01 µM): 91.6% | viability, T/C [7]: 92% | viability, T/C [8]: 78.3% | viability, T/C (second compound 0.316 µM, first compound 0.000316 µM): 81.7% | viability, T/C (second compound 0.316 µM, first compound 0.001 µM): 77.8% | viability, T/C (second compound 0.316 µM, first compound 0.00316 µM): 81.2% | viability, T/C (second compound 0.316 µM, first compound 0.01 µM): 82.2% | viability, T/C [9]: 79.2% | viability, T/C [10]: 68.7% | viability, T/C (second compound 1 µM, first compound 0.000316 µM): 53% | viability, T/C (second compound 1 µM, first compound 0.001 µM): 59.8% | viability, T/C (second compound 1 µM, first compound 0.00316 µM): 68.6% | viability, T/C (second compound 1 µM, first compound 0.01 µM): 58.1% | viability, T/C [11]: 59.2% | viability, T/C [12]: 54.2%

CC1(C)CCC(CN2CCN(c3ccc(C(=O)NS(=O)(=O)c4ccc(NCC5CCOCC5)c([N+](=O)[O-])c4)c(Oc4cnc5[nH]ccc5c4)c3)CC2)=C(c2ccc(Cl)cc2)C1 + CC(Nc1ncnc2nc[nH]c12)c1cc2cccc(Cl)c2c(=O)n1-c1ccccc1
IC50 [1]: > 10 µM | IC50 [2]: > 10 µM | IC50 [3]: > 10 µM | IC50 [4]: > 10 µM | IC50 (curve of first compound, second compound 3.16 µM): 9.57 µM | IC50 (curve of first compound, second compound 10 µM): > 10 µM | viability, T/C [5]: 105% | viability, T/C [6]: 86.3% | viability, T/C (second compound 0.0316 µM, first compound 0.316 µM): 106% | viability, T/C (second compound 0.0316 µM, first compound 1 µM): 103% | viability, T/C (second compound 0.0316 µM, first compound 3.16 µM): 114% | viability, T/C (second compound 0.0316 µM, first compound 10 µM): 65% | viability, T/C [7]: 108% | viability, T/C [8]: 96.9% | viability, T/C (second compound 0.1 µM, first compound 0.316 µM): 99.4% | viability, T/C (second compound 0.1 µM, first compound 1 µM): 119% | viability, T/C (second compound 0.1 µM, first compound 3.16 µM): 128% | viability, T/C (second compound 0.1 µM, first compound 10 µM): 67% | viability, T/C [9]: 111% | viability, T/C [10]: 96.3% | viability, T/C (second compound 0.316 µM, first compound 0.316 µM): 104% | viability, T/C (second compound 0.316 µM, first compound 1 µM): 101% | viability, T/C (second compound 0.316 µM, first compound 3.16 µM): 112% | viability, T/C (second compound 0.316 µM, first compound 10 µM): 60.9% | viability, T/C [11]: 102% | viability, T/C [12]: 88.7% | viability, T/C (second compound 1 µM, first compound 0.316 µM): 103% | viability, T/C (second compound 1 µM, first compound 1 µM): 114% | viability, T/C (second compound 1 µM, first compound 3.16 µM): 124% | viability, T/C (second compound 1 µM, first compound 10 µM): 63.1% | viability, T/C (second compound 3.16 µM, first compound 0.0316 µM): 109% | viability, T/C (second compound 3.16 µM, first compound 0.1 µM): 92.3% | viability, T/C (second compound 3.16 µM, first compound 0.316 µM): 102% | viability, T/C (second compound 3.16 µM, first compound 1 µM): 107% | viability, T/C (second compound 3.16 µM, first compound 3.16 µM): 112% | viability, T/C (second compound 3.16 µM, first compound 10 µM): 47.7% | viability, T/C (second compound 10 µM, first compound 0.0316 µM): 88.4% | viability, T/C (second compound 10 µM, first compound 0.1 µM): 88.9% | viability, T/C (second compound 10 µM, first compound 0.316 µM): 85.7% | viability, T/C (second compound 10 µM, first compound 1 µM): 102% | viability, T/C (second compound 10 µM, first compound 3.16 µM): 108% | viability, T/C (second compound 10 µM, first compound 10 µM): 54.6%

Cn1ncc(Cl)c1-c1cc(C(=O)NC(CN)Cc2cccc(F)c2)sc1Cl (stereo unspecified)
viability, T/C (compound 0.0316 µM): 90% [middle of 4 runs] | viability, T/C (compound 0.1 µM): 90.5% [middle of 4 runs] | viability, T/C (compound 0.316 µM): 84% [middle of 4 runs] | viability, T/C (compound 1 µM): 79.9% [middle of 4 runs] | viability, T/C (compound 3.16 µM): 75.6% [middle of 4 runs] | viability, T/C (compound 10 µM): 52.2% [middle of 4 runs] | IC50 (curve of compound): > 10 µM and 9.82 µM
